According to patent US11149005B2, “Organic amine ester derivative drug of 2-(α-hydroxypentyl)benzoic acid” (YAOPHARMA CO., LTD., priority 2018, dated 2021):
In brackets after ≈: the same amount, converted by molar mass. Read-outs that look alike come from different tables or passages of the source.

What was measured:
[1] = Solubility in pH 1.0, 4.5, 6.8 buffer solutions and pure water (supersaturated solution, 37° C., HPLC); assay type: physicochemical; conditions: for solubility: ultrapure water, thermodynamic from solid, 37° C. water bath overnight, read-out: apparent solubility in pure water
Procedure: 1. The experiment process A pH 1.0 HCl solution, a pH 4.5 acetate buffer solution, a pH 6.8 phosphate buffer solution and 5 mL of ultrapure water are added into graduated test tubes having stoppers. Small amounts of the test samples (butyphthalide (NBP), DB-1 hydrochloride or DB-2 hydrochloride) are weighed and added in batches. After each batch of the adding, intense shaking is performed for 30 seconds (ultrasound is prohibited), the dissolving is observed at any time, and when the test samples are add so that turbid insoluble particles or liquid drops can be seen, finally proper amounts of the test samples are added. The system is placed into a 37° C. water bath and vibrated overnight, to form a supersaturated solution. The supersaturated solution is centrifuged or filtered (the adsorption should be noticed), and 100 μL is fed into HPLC to measure the concentrations of the tested medicines.

[2] = Hygroscopicity: moisture absorption/weight gaining percentage at 25° C., relative humidity 75%; assay type: physicochemical
Procedure: 1. The Experiment Process
Three samples of each of the sodium salt of 2-(α-hydroxypentyl)benzoic acid, DB-1 and DB-2 are precisely weighed with approximately 0.2 g for each sample, and placed into weighing bottles, and the total masses of each of the samples and its weighing bottle are weighed and recorded. Then the weighing bottles are placed in a closed environment at 25° C. and at a constant humidity with the relative humidity of 75%, their masses are weighed at 6 h, 12 h, 24 h, 48 h, 96 h and 120 h, and the moisture absorption/weight gaining percentages are calculated. The moisture absorption/weight gaining percentages are calculated by using the formula as follows: moisture absorption/weight gaining percentage (%)=(sample mass after dilution—sample mass before dilution)/sample mass before dilution*100%.

[3] = Pharmacokinetics in mice: blood concentration versus time (LC-MS/MS); assay type: in vivo, Kunming mice; conditions: 10 mg/kg butyphthalide or equal moles; for concentration at 5 min / concentration at 1 h: male, Kunming, mouse, plasma
Procedure: (§1) 1. Animal Grouping and Dosage Regimen
(§2) 90 Kunming mice (male; 20±2 g) are randomly grouped into three groups, with 30 mice in each of the groups. The first group is the butyphthalide group, is divided into 6 subgroups (5 mice in each of the subgroups), and is administered with butyphthalide by 10 mg/kg. The secondary group is the DB-1 group, is divided into 6 subgroups (5 mice in each of the subgroups), and is administered with DB-1 of the equal moles to the butyphthalide. The third group is the DB-2 group, is divided into 6 subgroups (5 mice in each of the subgroups), and is administered with DB-2 of the equal moles to the butyphthalide. Before the experiment the mice are fasted and are free to drink water. At 5 min, 15 min, 30 min, 1 h, 2 h and 4 h, all of the groups are taken blood at the orbit and then executed, and the hearts, livers, spleens, lungs, kidneys and brains of the mice are immediately separated, washed by using normal saline, dried by using filter paper, weighed, added normal saline of a certain multiple, homogenized, placed into a −40° C. refrigerator, and refrigerated for use. The whole blood is centrifuged at 4500 r/min for 5 min, and the plasma is sucked and placed into a −40° C. refrigerator for use. The stored tissue homogenates are thawed, and 0.1 mL of each of the tissue homogenates is placed into a 0.5 mL EP tube, and added 0.2 mL of acetonitrile protein for precipitation. The precipitate is treated by vortex shocking for 5 minutes, and centrifuged at 10000 rpm for 10 min, and […] of the supernatant is fed into an LC-MS/MS system, for measuring the concentrations of the tested medicines.

[4] = In-vivo tissue distribution in mice (heart, liver, spleen, lung, kidney, brain); set-up: species or system Kunming mice; conditions: for contents in the brain compared with the sodium salt of 2-(α-hydroxypentyl)benzoic acid (NBP): all detection time points
Procedure: as §1, §2

[5] = Assessment on the brain targeting ability (Re, Ce, DTI relative to NBP, DAS3.2.5); assay type: in vivo, Kunming mice; conditions: mice
Procedure: as §2
The pharmacokinetic parameters are calculated by using the DAS3.2.5 software. Regarding the quantitative assessment on the brain targeting ability of the sodium salt of 2-(α-hydroxypentyl)benzoic acid (NBP), DB-1 hydrochloride and DB-2 hydrochloride, the following parameters are employed: relative uptake ratio (Rebrain), peak concentration ratio (Cebrain) and drug targeting index (DTIbrain), the calculating formulas of which are respectively: Re(brain, DB-1)=(AUCbrain)DB-1/(AUCbrain)NBP CeDB-1=(Cmax,brain)DB-1/(Cmax,brain)NBP DTIDB-1=(AUCbrain/AUCplasma)DB-1/(AUCbrain/AUCplasma)NBP Re(brain, DB-2)=(AUCbrain)DB-2/(AUCbrain)NBP CeDB-2=(Cmax,brain)DB-2/(Cmax,brain)NBP DTIDB-2=(AUCbrain/AUCplasma)DB-2/(AUCbrain/AUCplasma)NBP
The calculation results of the parameters can be seen in Table 2. Regarding DB-1, the brain relative uptake ratio Re is 3.64, the peak concentration ratio Ce is 2.93, and the drug targeting index DTI is 12.45. Regarding DB-2, the brain relative uptake ratio Re is 4.27, the peak concentration ratio Ce is 3.19, and the drug targeting index DTI is 18.08.

[6] = pH 1.0 HCl, pH 4.5 acetate, pH 6.8 phosphate buffer, pure water
[7] = 5 min after intravenous administration
[8] = 1 h after intravenous administration

| Compound | influence of pH on solubility [1, 6] | solubility class in words ([1]; pure water) | solubility ([1]; pure water) [mg/mL] | moisture absorption/weight gaining percentage ([2]; 6 h) [%] | moisture absorption/weight gaining percentage ([2]; 12 h) [%] | moisture absorption/weight gaining percentage ([2]; 24 h) [%] | moisture absorption/weight gaining percentage ([2]; 48 h) [%] | moisture absorption/weight gaining percentage ([2]; 96 h) [%] | moisture absorption/weight gaining percentage ([2]; 120 h) [%] | concentration at 5 min [3, 7] [µM] | concentration at 1 h [3, 8] [µM] | permeation of the blood-brain barrier [4] | contents in the brain compared with the sodium salt of 2-(α-hydroxypentyl)benzoic acid (NBP) [4] | brain relative uptake ratio Re (AUCbrain of compound / AUCbrain of NBP) [5] | drug targeting index DTI ((AUCbrain/AUCplasma) of compound / (AUCbrain/AUCplasma) of NBP) [5] | peak concentration ratio Ce (Cmax,brain of compound / Cmax,brain of NBP) [5] | also measured |
| --- | --- | --- | --- | --- | --- | --- | --- | --- | --- | --- | --- | --- | --- | --- | --- | --- | --- |
| CCCCC(OC(C)=O)c1ccccc1C(=O)OCCN(C)C (stereo not shown) [DB-1] | highest in the pH 1.0 HCl solution | soluble medicines | 20 ± 2.98 (≈ 62.3 mM) | 0.42 | 0.65 | 0.88 | 0.93 | 0.97 | 1.03 | 8.68 ± 1.48 | 2.98 ± 0.534 | can also permeate the blood-brain barrier and enter the brain | significant greater | 3.64 | 12.45 | 2.93 | moisture absorption/weight gaining percentage ([2]; 120 h, listed as DB-1 hydrochloride): 1.03±0.07% |
| CCCCC(OC(C)=O)c1ccccc1C(=O)OCCN1CCCCC1 (stereo not shown) [DB-2] | highest in the pH 1.0 HCl solution | soluble medicines | 11.7 ± 1.89 (≈ 32.2 mM) | 0.38 | 0.54 | 0.65 | 0.71 | 0.72 | 0.76 | 6.29 ± 1.2 | 1.45 ± 0.657 | can also permeate the blood-brain barrier and enter the brain | significant greater | 4.27 | 18.08 | 3.19 | moisture absorption/weight gaining percentage ([2]; 120 h, listed as DB-2 hydrochloride): 0.76±0.06%; accumulated concentration in the brain compared with DB-1 hydrochloride [4]: greater |
| CCCCC(O)c1ccccc1C(=O)[O-].[Na+] (stereo not drawn) [sodium salt of 2-(α-hydroxypentyl)benzoic acid, reference compound] | – | – | – | – | – | – | – | – | 2.49±0.25 | – | – | can permeate the blood-brain barrier and enter the brain | – | – | – | – | blood concentration [3, 7]: 12.243 ± 1.847 µM; blood concentration [3, 8]: 0.547 ± 0.289 µM; contents in the heart, the lung and the brain ([4]; 4 h after administration): too low to be detected |
| CCCCC1OC(=O)c2ccccc21 (racemic) [Butyphthalide (NBP), dl-3-n-butylphthalide, reference compound] | – | – | – | – | – | – | – | – | – | – | – | – | – | – | – | – | apparent solubility in pure water [1]: 0.0734 ± 0.0123 mg/mL; influence of pH on solubility [1]: not obvious; solubility class in words [1]: insoluble medicine |
